Laboratory results taken from patent publication US20100048950A1 (BOEHRINGER INGELHEIM INTERNATIONAL GMBH, priority 2007, published 2010).
pIC50: −log10 of the molar value.

Molecular target: T1, human glucocorticoid receptor (GR) complex (Homo sapiens, UniProt P04150)
T1 construct: made in house; host or cells: insect expression system (baculovirus lysate)
T1 sequence (P04150 1-777): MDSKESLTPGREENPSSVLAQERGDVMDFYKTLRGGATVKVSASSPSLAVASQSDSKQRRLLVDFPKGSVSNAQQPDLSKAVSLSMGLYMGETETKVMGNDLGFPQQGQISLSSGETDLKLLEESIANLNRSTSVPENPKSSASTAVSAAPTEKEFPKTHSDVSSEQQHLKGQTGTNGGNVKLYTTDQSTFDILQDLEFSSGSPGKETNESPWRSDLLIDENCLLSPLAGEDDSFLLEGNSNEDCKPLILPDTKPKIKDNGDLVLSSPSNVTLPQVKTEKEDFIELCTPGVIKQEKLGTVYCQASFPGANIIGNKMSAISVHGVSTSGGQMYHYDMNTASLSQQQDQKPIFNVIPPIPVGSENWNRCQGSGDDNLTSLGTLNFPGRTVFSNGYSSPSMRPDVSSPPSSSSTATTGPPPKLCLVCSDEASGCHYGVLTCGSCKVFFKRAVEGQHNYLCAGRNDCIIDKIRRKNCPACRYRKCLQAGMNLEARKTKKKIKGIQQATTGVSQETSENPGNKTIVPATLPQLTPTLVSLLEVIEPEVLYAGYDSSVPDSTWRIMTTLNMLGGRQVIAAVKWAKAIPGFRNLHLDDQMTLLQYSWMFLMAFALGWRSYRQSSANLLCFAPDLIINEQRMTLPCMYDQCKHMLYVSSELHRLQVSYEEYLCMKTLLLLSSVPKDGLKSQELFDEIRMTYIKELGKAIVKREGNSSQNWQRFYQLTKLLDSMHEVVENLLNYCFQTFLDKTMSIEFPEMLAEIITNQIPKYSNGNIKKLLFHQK
Experiment: Glucocorticoid receptor competitive binding assay (fluorescence polarization)
Details: competition with TAMRA-labeled dexamethasone, read-out: potent activity (IC50) in the GR binding assay
Method: Compounds of the invention were evaluated for binding to the steroid receptor by a fluorescence polarization competitive binding assay. Detailed descriptions for preparation of recombinant glucocorticoid receptor (GR) complex used in the assay is described in U.S. Patent Application Publication No. US 2003/0017503, filed May 20, 2002, and incorporated herein by reference in its entirety. Preparation of the tetramethylrhodamine (TAMRA)-labeled dexamethasone probe was accomplished using a standard literature procedure (M. Pons et al., J. Steroid Biochem., 1985, 22, pp. 267-273).
The affinity of the probe for the steroid receptor was then determined in a titration experiment. The fluorescence polarization value of the probe in assay buffer was measured on an SLM-8100 fluorometer using the excitation and emission maximum values described above. Aliquots of expression vector lysate were added and fluorescence polarization was measured after each addition until no further change in polarization value was observed. Non-linear least squares regression analysis was used to calculate the dissociation constant of the probe from the polarization values obtained for lysate binding to the probe.
This assay uses fluorescence polarization (FP) to quantitate the ability of test compounds to compete with tetramethylrhodamine (TAMRA)-labeled dexamethasone for binding to a human glucocorticoid receptor (GR) complex prepared from an insect expression system. The assay buffer was: 10 mM TES, 50 mM KCl, 20 mM Na2MoO4.2H2O, 1.5 mM EDTA, 0.04% w/v CHAPS, 10% v/v glycerol, 1 mM dithiothreitol, pH 7.4. Test compounds were dissolved to 1 mM in neat DMSO and then further diluted to 10× assay concentration in assay buffer supplemented with 10% v/v DMSO. Test compounds were serially diluted at 10× assay concentrations in 10% DMSO-containing buffer in 96-well polypropylene plates. Binding reaction mixtures were prepared in 96-well black Dynex microtiter plates by sequential addition of the following assay components to each well: 15 μL of 10× test compound solution, 85 μL of GR-containing baculovirus lysate diluted 1:170 in assay buffer, and 50 μL of 15 nM TAMRA-labeled dexamethasone. Positive controls were reaction mixtures containing no test compound; negative controls (blanks) were reaction mixtures containing 0.7 μM to 2 μM dexamethasone. The binding reactions were incubated for 1 hour at room temperature and then read for fluorescence polarization in the LJL Analyst set to 550 nm excitation and 580 nm emission, with the Rhodamine 561 dichroic mirror installed. IC50 values were determined by iterative non-linear curve fitting of the FP signal data to a 4-parameter logistic equation.

**Q.** How did the pIC50 turn out when Cc1cc(C)c(S(=O)(=O)NC(CNc2cc(C(F)(F)F)ccc2Cl)C(F)(F)F)c(C)c1 (stereo not drawn) [N-{1-[(2-Chloro-5-trifluoromethylphenylamino)methyl]-2,2,2-trifluoroethyl}-2,4,6-trimethylbenzenesulfonamide] was run?
**A.** Its pIC50 is no less than 7.00.

**Q.** How did the pIC50 turn out when COc1ccc(OC)c(SCC(NS(=O)(=O)c2c(C)cc(C)cc2C)C(F)(F)F)c1 (stereo not drawn) [N-[1-(2,5-Dimethoxyphenylsulfanylmethyl)-2,2,2-trifluoroethyl]-2,4,6-trimethylbenzenesulfonamide] was run?
**A.** The pIC50 was no less than 7.00.

**Q.** Cc1cc(C)c(S(=O)(=O)NC(COc2ccc(Cl)cc2F)C(F)(F)F)c(C)c1 (stereo not drawn) [N-[1-(4-Chloro-2-fluorophenoxymethyl)-2,2,2-trifluoroethyl]-2,4,6-trimethylbenzenesulfonamide] was tested. Which pIC50 did it give?
**A.** Its pIC50 is no less than 7.00.

**Q.** With Cc1cc(C)c(S(=O)(=O)NC(CNc2ccccc2C#N)C(F)(F)F)c(C)c1 (stereo not drawn) [N-{1-[(2-Cyanophenylamino)methyl]-2,2,2-trifluoroethyl}-2,4,6-trimethylbenzenesulfonamide] as the compound, how does the pIC50 read?
**A.** Its pIC50 is no less than 7.00.

**Q.** How did the pIC50 turn out when Cc1cc(C)c(S(=O)(=O)NC(CSc2cccc(C(F)(F)F)c2)C(F)(F)F)c(C)c1 (stereo not drawn) [2,4,6-Trimethyl-N-[2,2,2-trifluoro-1-(3-trifluoromethylphenylsulfanylmethyl)ethyl]benzenesulfonamide] was run?
**A.** The pIC50 was no less than 7.00.

**Q.** How did the pIC50 turn out when CCN(CC(NS(=O)(=O)c1c(C)cc(C)cc1C)C(F)(F)F)c1cccc(C)c1 (stereo not drawn) [N-{1-[(Ethyl-m-tolylamino)methyl]-2,2,2-trifluoroethyl}-2,4,6-trimethylbenzenesulfonamide] was run?
**A.** Its pIC50 is no less than 7.00.

**Q.** With CCc1cccc(C)c1NCC(NS(=O)(=O)c1c(C)cc(C)cc1C)C(F)(F)F (stereo not drawn) [N-{1-[(2-Ethyl-6-methylphenylamino)methyl]-2,2,2-trifluoroethyl}-2,4,6-trimethylbenzenesulfonamide] as the compound, how does the pIC50 read?
**A.** The pIC50 was no less than 7.00.

**Q.** With Cc1cc(C)c(S(=O)(=O)NC(CSc2ccc(Br)cc2)C(F)(F)F)c(C)c1 (stereo not drawn) [N-[1-(4-Bromophenylsulfanylmethyl)-2,2,2-trifluoroethyl]-2,4,6-trimethylbenzenesulfonamide] as the compound, how does the pIC50 read?
**A.** Its pIC50 is no less than 7.00.

**Q.** How did the pIC50 turn out when Cc1cc(C)cc(NCC(NS(=O)(=O)c2c(C)cc(C)cc2C)C(C)C)c1 (stereo not drawn) [N-{1-[(3,5-Dimethylphenylamino)methyl]-2-methylpropyl}-2,4,6-trimethylbenzenesulfonamide] was run?
**A.** The pIC50 was no less than 7.00.

**Q.** How did the pIC50 turn out when Cc1cc(C)c(S(=O)(=O)NC(CSc2ccc(Cl)c(Cl)c2)C(F)(F)F)c(C)c1 (stereo not drawn) [N-[1-(3,4-Dichlorophenylsulfanylmethyl)-2,2,2-trifluoroethyl]-2,4,6-trimethylbenzenesulfonamide] was run?
**A.** The pIC50 was no less than 7.00.

**Q.** How did the pIC50 turn out when Cc1cc(C)c(S(=O)(=O)NC(CN(C)c2ccccc2OC(F)(F)F)C(F)(F)F)c(C)c1 (stereo not drawn) [2,4,6-Trimethyl-N-(2,2,2-trifluoro-1-{[methyl-(2-trifluoromethoxyphenyl)amino]methyl}-ethyl)benzenesulfonamide] was run?
**A.** Its pIC50 is no less than 7.00.

**Q.** How did the pIC50 turn out when Cc1cc(C)c(S(=O)(=O)NC(COc2cc(F)cc(C(F)(F)F)c2)C(F)(F)F)c(C)c1 (stereo not drawn) [2,4,6-Trimethyl-N-[2,2,2-trifluoro-1-(3-fluoro-5-trifluoromethylphenoxymethyl)ethyl]benzenesulfonamide] was run?
**A.** The pIC50 was no less than 7.00.

**Q.** Cc1cc(C)c(S(=O)(=O)NC(COc2ccc(C#N)c(Cl)c2)C(F)(F)F)c(C)c1 (stereo not drawn) [N-[1-(3-Chloro-4-cyanophenoxymethyl)-2,2,2-trifluoroethyl]-2,4,6-trimethylbenzenesulfonamide] was tested. Which pIC50 did it give?
**A.** Its pIC50 is no less than 7.00.

**Q.** With Cc1cc(C)c(S(=O)(=O)NC(COc2cc(C)c(C#N)c(C)c2)C(F)(F)F)c(C)c1 (stereo not drawn) [N-[1-(4-Cyano-3,5-dimethylphenoxymethyl)-2,2,2-trifluoroethyl]-2,4,6-trimethylbenzenesulfonamide] as the compound, how does the pIC50 read?
**A.** Its pIC50 is no less than 7.00.

**Q.** How did the pIC50 turn out when Cc1cc(C)c(S(=O)(=O)NC(CNc2cc(Cl)ccc2Cl)C(F)(F)F)c(C)c1 (stereo not drawn) [N-{1-[(2,5-Dichlorophenylamino)methyl]-2,2,2-trifluoroethyl}-2,4,6-trimethylbenzenesulfonamide] was run?
**A.** Its pIC50 is no less than 7.00.

**Q.** With Cc1cc(C)c(S(=O)(=O)NC(COc2cccc3ccccc23)C(F)(F)F)c(C)c1 (stereo not drawn) [2,4,6-Trimethyl-N-[2,2,2-trifluoro-1-(naphthalen-1-yloxymethyl)ethyl]benzenesulfonamide] as the compound, how does the pIC50 read?
**A.** The pIC50 was no less than 7.00.

**Q.** How did the pIC50 turn out when Cc1cccc(OCC(NS(=O)(=O)c2c(C)cc(C)cc2C)C(F)(F)F)c1 (stereo not drawn) [2,4,6-Trimethyl-N-(2,2,2-trifluoro-1-m-tolyloxymethylethyl)benzenesulfonamide] was run?
**A.** Its pIC50 is no less than 7.00.

**Q.** With Cc1cc(C)c(S(=O)(=O)NC(CNc2ccc(Cl)cc2C#N)C(F)(F)F)c(C)c1 (stereo not drawn) [N-{1-[(4-Chloro-2-cyanophenylamino)methyl]-2,2,2-trifluoroethyl}-2,4,6-trimethylbenzenesulfonamide] as the compound, how does the pIC50 read?
**A.** Its pIC50 is no less than 7.00.

**Q.** Cc1ccc(NCC(NS(=O)(=O)c2c(C)cc(C)cc2C)C(F)(F)F)cc1 (stereo not drawn) [2,4,6-Trimethyl-N-[2,2,2-trifluoro-1-(p-tolylaminomethyl)ethyl]benzenesulfonamide] was tested. Which pIC50 did it give?
**A.** Its pIC50 is no less than 7.00.

**Q.** Cc1cc(C)c(S(=O)(=O)NC(COc2cc(Cl)ccc2C)C(F)(F)F)c(C)c1 (stereo not drawn) [N-[1-(5-Chloro-2-methylphenoxymethyl)-2,2,2-trifluoroethyl]-2,4,6-trimethylbenzenesulfonamide] was tested. Which pIC50 did it give?
**A.** The pIC50 was no less than 7.00.

**Q.** How did the pIC50 turn out when CCC(CSc1ccccc1)NS(=O)(=O)c1c(C)cc(C)cc1C (stereo not drawn) [2,4,6-Trimethyl-N-(1-phenylsulfanylmethylpropyl)benzenesulfonamide] was run?
**A.** The pIC50 was no less than 7.00.

**Q.** With COc1cccc(SCC(NS(=O)(=O)c2c(C)cc(C)cc2C)C(F)(F)F)c1 (stereo not drawn) [2,4,6-Trimethyl-N-[2,2,2-trifluoro-1-(3-methoxyphenylsulfanylmethyl)ethyl]benzenesulfonamide] as the compound, how does the pIC50 read?
**A.** The pIC50 was no less than 7.00.

**Q.** With Cc1cc(C)c(S(=O)(=O)NC(CNc2cccc3c2CCCC3)C(F)(F)F)c(C)c1 (stereo not drawn) [2,4,6-Trimethyl-N-{2,2,2-trifluoro-1-[(5,6,7,8-tetrahydronaphthalen-1-ylamino)methyl]ethyl}benzenesulfonamide] as the compound, how does the pIC50 read?
**A.** The pIC50 was no less than 7.00.

**Q.** COC(=O)c1ccccc1NCC(NS(=O)(=O)c1c(C)cc(C)cc1C)C(F)(F)F (stereo not drawn) [2-[3,3,3-Trifluoro-2-(2,4,6-trimethylbenzenesulfonylamino)propylamino]benzoic acid methyl ester] was tested. Which pIC50 did it give?
**A.** Its pIC50 is no less than 7.00.

**Q.** With Cc1cc(C)c(S(=O)(=O)NC(CSc2cc(C)ccc2C)C(F)(F)F)c(C)c1 (stereo not drawn) [N-[1-(2,5-Dimethylphenylsulfanylmethyl)-2,2,2-trifluoroethyl]-2,4,6-trimethylbenzenesulfonamide] as the compound, how does the pIC50 read?
**A.** The pIC50 was no less than 7.00.

**Q.** How did the pIC50 turn out when CCCN(CC(NS(=O)(=O)c1c(C)cc(C)cc1C)C(F)(F)F)c1ccccc1 (stereo not drawn) was run?
**A.** Its pIC50 is no less than 7.00.

**Q.** With Cc1cc(C)c(S(=O)(=O)NC(COc2cc(Cl)cc(Cl)c2)C(F)(F)F)c(C)c1 (stereo not drawn) [N-[1-(3,5-Dichlorophenoxymethyl)-2,2,2-trifluoroethyl]-2,4,6-trimethylbenzenesulfonamide] as the compound, how does the pIC50 read?
**A.** The pIC50 was no less than 7.00.

**Q.** Cc1cc(C)c(S(=O)(=O)NC(COc2ccccc2C(F)(F)F)C(F)(F)F)c(C)c1 (stereo not drawn) [2,4,6-Trimethyl-N-[2,2,2-trifluoro-1-(2-trifluoromethylphenoxymethyl)ethyl]benzenesulfonamide] was tested. Which pIC50 did it give?
**A.** Its pIC50 is no less than 7.00.

**Q.** How did the pIC50 turn out when Cc1cc(C)c(S(=O)(=O)NC(COc2ccccc2C#N)C(F)(F)F)c(C)c1 (stereo not drawn) [N-[1-(2-Cyanophenoxymethyl)-2,2,2-trifluoroethyl]-2,4,6-trimethylbenzenesulfonamide] was run?
**A.** Its pIC50 is no less than 7.00.

**Q.** How did the pIC50 turn out when Cc1cc(C)c(S(=O)(=O)NC(CNc2ccc(C)cc2F)C(F)(F)F)c(C)c1 (stereo not drawn) [2,4,6-Trimethyl-N-{2,2,2-trifluoro-1-[(2-fluoro-4-methylphenylamino)methyl]ethyl}benzenesulfonamide] was run?
**A.** Its pIC50 is no less than 7.00.
